Source: patent US11572369B2, “Bicyclic pyridine compositions and methods of using the same for cancer therapy” (UNIVERSITY OF SOUTH CAROLINA, priority 2019, dated 2023)

Legend:
Assay in all cases: KINOMEscan
Assay type in all cases: binding
Settings in all cases: 2000 nM
SBK1 = biological target: T1, SBK1 (Homo sapiens, UniProt Q52WX2)
T1 construct: purchased DiscoveRx (KINOMEscan scanMAX panel)

DRAK2 = biological target: T2, DRAK2 (Homo sapiens, UniProt O94768)
T2 construct: DNA label (qPCR read-out); purchased KINOMEscan (DiscoveRx) panel

CDK4-cyclinD1 = biological target: T3, CDK4-cyclinD1 (Homo sapiens, UniProt P11802)
T3 construct: purchased DiscoverX (KINOMEscan service)

PIP5K1A = biological target: T4, PIP5K1A (Homo sapiens, UniProt Q99755)
T4 construct: DNA label (qPCR read-out); purchased KINOMEscan (DiscoveRx) panel

LOK = biological target: T5, LOK (Homo sapiens, UniProt O94804)
T5 construct: purchased KINOMEscan (DiscoveRx) panel service

BIKE = biological target: T6, BIKE (Homo sapiens, UniProt Q9NSY1)
T6 construct: DNA label (qPCR read-out); purchased KINOMEscan scanMAX panel (DiscoveRx)

KIT = biological target: T7, KIT (Homo sapiens, UniProt P10721)
T7 construct: DNA label (for qPCR read-out); purchased DiscoveRx (KINOMEscan scanMAX panel)

MEK6 = biological target: T8, MEK6 (Homo sapiens, UniProt P52564)
T8 construct: purchased DiscoveRx (KINOMEscan scanMAX panel, service)

PRKG2 = biological target: T9, PRKG2 (Homo sapiens, UniProt Q13237)
T9 construct: purchased DiscoveRx (KINOMEscan scanMAX panel)

S6K1 = biological target: T10, S6K1 (Homo sapiens, UniProt P23443)
T10 construct: purchased DiscoveRx (KINOMEscan scanMAX panel)

MST1 = biological target: T11, MST1 (Homo sapiens, UniProt Q13043)
T11 construct: DNA label (qPCR read-out); purchased KINOMEscan scanMAX panel (DiscoveRx)

MRCKB = biological target: T12, MRCKB (Homo sapiens, UniProt Q9Y5S2)
T12 construct: DNA label (qPCR read-out); purchased KINOMEscan scanMAX panel (DiscoveRx)

IKK-beta = biological target: T13, IKK-beta (Homo sapiens, UniProt O14920)
T13 construct: DNA label (qPCR read-out); purchased KINOMEscan (DiscoveRx) ScanMAX panel

PKAC-alpha = biological target: T14, PKAC-alpha (Homo sapiens, UniProt P17612)
T14 construct: DNA label (qPCR read-out); purchased KINOMEscan (DiscoveRx) panel

ALK(C1156Y) = biological target: T15, ALK(C1156Y) (Homo sapiens, UniProt Q9UM73, C1156Y)
T15 construct: DNA label (qPCR read-out); purchased KINOMEscan scanMAX panel (DiscoveRx)

[1] = biological target: T16, EGFR(L747-E749del, A750P) (Homo sapiens, UniProt P00533, A750P/DEL747-749)
T16 construct: purchased DiscoveRx (KINOMEscan scanMAX panel)

ASK1 = biological target: T17, ASK1 (Homo sapiens, UniProt Q99683)
T17 construct: DNA label (qPCR read-out); purchased KINOMEscan scanMAX panel (DiscoveRx)

STK35 = biological target: T18, STK35 (Homo sapiens, UniProt Q8TDR2)
T18 construct: DNA label (for qPCR read-out); purchased DiscoveRx (KINOMEscan scanMAX panel, contract assay)

CSNK2A2 = biological target: T19, CSNK2A2 (Homo sapiens, UniProt P19784)
T19 construct: DNA label; purchased DiscoveRx (KINOMEscan scanMAX panel)

EPHB6 = biological target: T20, EPHB6 (Homo sapiens, UniProt O15197)
T20 construct: DNA label (qPCR read-out); purchased DiscoveRx (KINOMEscan ScanMAX panel)

ABL2 = biological target: T21, ABL2 (Homo sapiens, UniProt P42684)
T21 construct: purchased DiscoveRx (KINOMEscan scanMAX panel, service)

MAP3K4 = MAP3K4 (Homo sapiens, UniProt Q9Y6R4)
PAK7 = biological target: T22, PAK7 (Homo sapiens, UniProt Q9P286)
T22 construct: purchased DiscoverX (KINOMEscan service)

BRSK1 = biological target: T23, BRSK1 (Homo sapiens, UniProt Q8TDC3)
T23 construct: DNA label (for qPCR read-out); purchased KINOMEscan scanMAX panel (DiscoveRx)

BTK = biological target: T24, BTK (Homo sapiens, UniProt Q06187)
T24 construct: DNA label (for qPCR read-out); purchased KINOMEscan scanMAX panel (DiscoveRx)

YANK3 = biological target: T25, YANK3 (Homo sapiens, UniProt Q86UX6)
T25 construct: purchased KINOMEscan (DiscoveRx) panel service

SRPK3 = biological target: T26, SRPK3 (Homo sapiens, UniProt Q9UPE1)
T26 construct: purchased KINOMEscan (DiscoveRx)

TLK1 = biological target: T27, TLK1 (Homo sapiens, UniProt Q9UKI8)
T27 construct: DNA label (qPCR read-out); purchased KINOMEscan (DiscoveRx) ScanMAX panel

LTK = biological target: T28, LTK (Homo sapiens, UniProt P29376)
T28 construct: purchased KINOMEscan (DiscoveRx) panel service

NEK6 = biological target: T29, NEK6 (Homo sapiens, UniProt Q9HC98)
T29 construct: DNA label (qPCR read-out); purchased KINOMEscan (ScanMAX panel service)

PFTAIRE2 = biological target: T30, PFTAIRE2 (Homo sapiens, UniProt Q96Q40)
T30 construct: DNA label (for qPCR read-out); purchased DiscoveRx (KINOMEscan scanMAX service)

[2] = biological target: T31, RPS6KA5(Kin.Dom.1-N-terminal) (Homo sapiens, UniProt O75582)
T31 construct: Kin.Dom.1; DNA label (qPCR read-out); purchased DiscoveRx (KINOMEscan ScanMAX panel)

MEK3 = biological target: T32, MEK3 (Homo sapiens, UniProt P46734)
T32 construct: purchased DiscoveRx (KINOMEscan scanMAX panel, service)

MARK4 = biological target: T33, MARK4 (Homo sapiens, UniProt Q96L34)
T33 construct: purchased DiscoveRx (KINOMEscan scanMAX panel, service)

LCK = biological target: T34, LCK (Homo sapiens, UniProt P06239)
T34 construct: purchased KINOMEscan (DiscoveRx) panel service

T4 sequence (Q99755 whole entry): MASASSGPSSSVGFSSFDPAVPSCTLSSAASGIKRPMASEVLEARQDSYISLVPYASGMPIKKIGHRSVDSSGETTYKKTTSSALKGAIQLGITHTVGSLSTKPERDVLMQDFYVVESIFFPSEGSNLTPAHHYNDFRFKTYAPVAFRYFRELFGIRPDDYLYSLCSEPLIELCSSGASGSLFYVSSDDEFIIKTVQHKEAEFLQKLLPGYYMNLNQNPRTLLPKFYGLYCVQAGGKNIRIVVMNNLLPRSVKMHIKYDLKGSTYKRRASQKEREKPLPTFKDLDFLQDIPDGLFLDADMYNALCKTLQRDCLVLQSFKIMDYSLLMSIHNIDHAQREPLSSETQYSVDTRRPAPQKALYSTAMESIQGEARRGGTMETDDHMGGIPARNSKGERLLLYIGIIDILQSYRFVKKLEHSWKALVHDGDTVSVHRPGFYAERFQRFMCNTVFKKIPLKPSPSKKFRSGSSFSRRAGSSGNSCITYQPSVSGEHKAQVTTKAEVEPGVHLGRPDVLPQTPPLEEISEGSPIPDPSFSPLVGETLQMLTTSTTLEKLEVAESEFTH
T33 sequence (Q96L34 whole entry): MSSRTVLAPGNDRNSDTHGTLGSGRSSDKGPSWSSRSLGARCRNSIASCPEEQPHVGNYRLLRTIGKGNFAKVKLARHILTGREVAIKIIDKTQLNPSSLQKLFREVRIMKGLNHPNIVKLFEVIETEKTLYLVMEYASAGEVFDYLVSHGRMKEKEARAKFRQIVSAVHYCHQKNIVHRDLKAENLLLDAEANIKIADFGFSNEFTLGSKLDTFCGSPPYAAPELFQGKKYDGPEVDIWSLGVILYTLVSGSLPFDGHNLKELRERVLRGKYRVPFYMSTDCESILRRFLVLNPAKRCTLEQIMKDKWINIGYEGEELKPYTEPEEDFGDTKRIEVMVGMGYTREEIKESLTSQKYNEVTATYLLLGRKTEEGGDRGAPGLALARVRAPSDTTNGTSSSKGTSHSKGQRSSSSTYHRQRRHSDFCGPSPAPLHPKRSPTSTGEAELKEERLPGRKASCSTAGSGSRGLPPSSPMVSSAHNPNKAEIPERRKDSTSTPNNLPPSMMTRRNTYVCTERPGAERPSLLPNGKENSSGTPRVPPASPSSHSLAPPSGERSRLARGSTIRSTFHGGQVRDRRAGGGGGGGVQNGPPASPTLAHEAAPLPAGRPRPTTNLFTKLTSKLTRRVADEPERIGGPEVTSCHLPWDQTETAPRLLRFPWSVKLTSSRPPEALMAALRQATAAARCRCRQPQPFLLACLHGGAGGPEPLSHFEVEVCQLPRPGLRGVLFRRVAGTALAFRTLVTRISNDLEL
T9 sequence (Q13237 whole entry): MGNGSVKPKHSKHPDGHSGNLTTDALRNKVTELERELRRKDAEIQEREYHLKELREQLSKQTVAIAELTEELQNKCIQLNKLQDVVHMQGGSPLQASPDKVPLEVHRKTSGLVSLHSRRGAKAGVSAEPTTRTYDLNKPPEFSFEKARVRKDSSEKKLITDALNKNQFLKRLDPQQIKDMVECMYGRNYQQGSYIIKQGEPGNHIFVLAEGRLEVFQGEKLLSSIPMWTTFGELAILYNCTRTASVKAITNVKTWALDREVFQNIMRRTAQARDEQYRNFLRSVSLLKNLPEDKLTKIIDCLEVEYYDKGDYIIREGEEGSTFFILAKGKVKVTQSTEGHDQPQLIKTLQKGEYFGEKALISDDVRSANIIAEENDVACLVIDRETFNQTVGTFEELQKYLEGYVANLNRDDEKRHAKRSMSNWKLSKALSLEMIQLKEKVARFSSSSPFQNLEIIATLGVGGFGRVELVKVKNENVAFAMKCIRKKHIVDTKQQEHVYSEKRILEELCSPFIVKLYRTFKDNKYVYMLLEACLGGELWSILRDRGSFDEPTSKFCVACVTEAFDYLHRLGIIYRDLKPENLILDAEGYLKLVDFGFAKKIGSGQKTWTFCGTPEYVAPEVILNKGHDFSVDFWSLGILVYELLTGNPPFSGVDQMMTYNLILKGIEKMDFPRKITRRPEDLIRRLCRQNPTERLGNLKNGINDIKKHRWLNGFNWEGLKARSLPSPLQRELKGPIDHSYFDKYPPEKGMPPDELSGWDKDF
T25 sequence (Q86UX6 whole entry): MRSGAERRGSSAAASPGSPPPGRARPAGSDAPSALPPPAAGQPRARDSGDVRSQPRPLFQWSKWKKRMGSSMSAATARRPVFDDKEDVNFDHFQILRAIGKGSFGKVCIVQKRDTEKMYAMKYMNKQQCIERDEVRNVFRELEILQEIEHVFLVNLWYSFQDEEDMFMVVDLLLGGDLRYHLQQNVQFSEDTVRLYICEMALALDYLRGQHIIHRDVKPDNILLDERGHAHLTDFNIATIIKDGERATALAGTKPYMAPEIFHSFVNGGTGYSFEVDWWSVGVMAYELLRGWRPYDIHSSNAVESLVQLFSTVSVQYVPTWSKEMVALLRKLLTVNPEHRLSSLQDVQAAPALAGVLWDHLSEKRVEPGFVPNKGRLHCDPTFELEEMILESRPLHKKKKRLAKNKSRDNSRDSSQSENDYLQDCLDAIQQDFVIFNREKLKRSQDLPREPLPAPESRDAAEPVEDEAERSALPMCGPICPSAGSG
Sequence of MAP3K4 (Q9Y6R4 whole entry): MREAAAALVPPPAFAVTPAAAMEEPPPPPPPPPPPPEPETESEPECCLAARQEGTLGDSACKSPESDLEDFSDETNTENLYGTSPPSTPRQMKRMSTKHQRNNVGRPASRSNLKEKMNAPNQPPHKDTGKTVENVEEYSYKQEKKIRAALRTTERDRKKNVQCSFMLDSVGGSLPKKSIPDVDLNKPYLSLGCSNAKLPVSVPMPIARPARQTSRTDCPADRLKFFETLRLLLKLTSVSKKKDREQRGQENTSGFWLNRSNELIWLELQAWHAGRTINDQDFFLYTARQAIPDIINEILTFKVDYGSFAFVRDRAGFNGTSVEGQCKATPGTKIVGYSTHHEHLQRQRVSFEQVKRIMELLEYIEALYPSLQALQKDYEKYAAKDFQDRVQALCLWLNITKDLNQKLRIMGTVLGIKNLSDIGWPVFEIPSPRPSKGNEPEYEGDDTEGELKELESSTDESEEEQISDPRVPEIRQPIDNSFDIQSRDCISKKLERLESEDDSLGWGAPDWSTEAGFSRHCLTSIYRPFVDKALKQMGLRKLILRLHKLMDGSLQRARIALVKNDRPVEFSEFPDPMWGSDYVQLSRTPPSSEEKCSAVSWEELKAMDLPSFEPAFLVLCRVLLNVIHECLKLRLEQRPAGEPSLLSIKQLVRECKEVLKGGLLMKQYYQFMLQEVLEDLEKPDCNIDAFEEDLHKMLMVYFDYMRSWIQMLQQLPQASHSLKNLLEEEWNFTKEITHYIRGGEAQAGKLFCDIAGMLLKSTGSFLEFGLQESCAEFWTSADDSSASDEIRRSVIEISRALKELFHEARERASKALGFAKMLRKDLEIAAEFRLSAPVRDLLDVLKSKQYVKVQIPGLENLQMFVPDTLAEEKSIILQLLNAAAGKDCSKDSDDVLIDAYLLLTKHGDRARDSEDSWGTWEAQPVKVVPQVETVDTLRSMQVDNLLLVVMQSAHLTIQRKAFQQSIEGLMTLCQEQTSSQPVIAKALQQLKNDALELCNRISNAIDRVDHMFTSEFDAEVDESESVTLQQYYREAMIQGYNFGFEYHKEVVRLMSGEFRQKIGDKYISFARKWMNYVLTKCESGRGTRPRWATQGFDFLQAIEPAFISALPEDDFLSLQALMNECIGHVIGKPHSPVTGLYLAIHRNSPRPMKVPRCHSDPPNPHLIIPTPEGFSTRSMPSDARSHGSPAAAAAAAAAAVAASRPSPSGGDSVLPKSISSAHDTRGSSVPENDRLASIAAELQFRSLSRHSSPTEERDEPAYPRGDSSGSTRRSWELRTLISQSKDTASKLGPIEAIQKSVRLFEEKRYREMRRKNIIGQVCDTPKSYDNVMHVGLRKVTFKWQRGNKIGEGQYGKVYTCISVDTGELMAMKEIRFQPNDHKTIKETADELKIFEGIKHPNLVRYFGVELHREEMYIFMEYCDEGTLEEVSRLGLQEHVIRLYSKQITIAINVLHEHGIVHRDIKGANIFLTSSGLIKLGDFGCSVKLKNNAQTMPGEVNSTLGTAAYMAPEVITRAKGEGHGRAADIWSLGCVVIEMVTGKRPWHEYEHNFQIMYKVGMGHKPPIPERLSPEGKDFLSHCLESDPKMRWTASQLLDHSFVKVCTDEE
T23 sequence (Q8TDC3 whole entry): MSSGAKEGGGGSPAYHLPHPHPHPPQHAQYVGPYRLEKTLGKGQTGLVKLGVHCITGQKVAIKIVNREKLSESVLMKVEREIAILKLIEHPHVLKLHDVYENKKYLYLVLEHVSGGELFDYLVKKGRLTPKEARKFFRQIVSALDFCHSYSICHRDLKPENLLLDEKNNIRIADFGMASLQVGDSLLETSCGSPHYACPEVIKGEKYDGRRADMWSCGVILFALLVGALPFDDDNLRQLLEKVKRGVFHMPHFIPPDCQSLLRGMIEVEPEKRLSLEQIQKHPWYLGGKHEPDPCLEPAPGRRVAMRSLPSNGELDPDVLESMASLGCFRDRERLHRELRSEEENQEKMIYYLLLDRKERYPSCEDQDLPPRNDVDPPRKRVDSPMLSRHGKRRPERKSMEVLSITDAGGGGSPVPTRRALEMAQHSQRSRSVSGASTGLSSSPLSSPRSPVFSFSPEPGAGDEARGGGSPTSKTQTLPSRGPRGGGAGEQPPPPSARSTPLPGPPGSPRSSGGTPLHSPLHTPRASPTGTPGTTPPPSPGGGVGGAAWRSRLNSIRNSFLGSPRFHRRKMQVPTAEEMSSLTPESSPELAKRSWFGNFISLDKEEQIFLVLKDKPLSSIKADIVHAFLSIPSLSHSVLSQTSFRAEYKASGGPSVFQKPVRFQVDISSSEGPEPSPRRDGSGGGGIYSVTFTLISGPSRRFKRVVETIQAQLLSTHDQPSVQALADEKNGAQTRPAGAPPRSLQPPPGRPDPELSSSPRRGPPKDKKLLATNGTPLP

For [2H]C([2H])([2H])N(C(=O)c1ccc(N2CCCN(c3ccnc4sc(C(N)=O)c(N)c34)CC2)cc1)C([2H])([2H])[2H] [15u_D6, 3-amino-4-(4-(4-(bis(methyl-d3)carbamoyl)phenyl)-1,4-diazepan-1-yl)thieno[2,3-b]pyridine-2-carboxamide], the “% Ctrl” value (SBK1) was 83 % Ctrl, the “% Ctrl” value (DRAK2) was 87 % Ctrl and the “% Ctrl” value (CDK4-cyclinD1) was 96 % Ctrl. For the same compound, the “% Ctrl” value (PIP5K1A) was 100 % Ctrl, the “% Ctrl” value (LOK) was 69 % Ctrl and the “% Ctrl” value (BIKE) was 96 % Ctrl. The “% Ctrl” value (KIT) was 95 % Ctrl, the “% Ctrl” value (MEK6) was 96 % Ctrl and the “% Ctrl” value (PRKG2) was 90 % Ctrl. The “% Ctrl” value (S6K1) was 89 % Ctrl, the “% Ctrl” value (MST1) was 98 % Ctrl and the “% Ctrl” value (MRCKB) was 100 % Ctrl. For the same compound, the “% Ctrl” value (IKK-beta) was 71 % Ctrl, the “% Ctrl” value (PKAC-alpha) was 100 % Ctrl and the “% Ctrl” value (ALK(C1156Y)) was 78 % Ctrl. The “% Ctrl” value [1] was 100 % Ctrl, the “% Ctrl” value (ASK1) was 100 % Ctrl and the “% Ctrl” value (STK35) was 93 % Ctrl. For the same compound, the “% Ctrl” value (CSNK2A2) was 100 % Ctrl, the “% Ctrl” value (EPHB6) was 89 % Ctrl and the “% Ctrl” value (ABL2) was 91 % Ctrl. For the same compound, the “% Ctrl” value (MAP3K4) was 100 % Ctrl, the “% Ctrl” value (PAK7) was 80 % Ctrl and the “% Ctrl” value (BRSK1) was 97 % Ctrl. The “% Ctrl” value (BTK) was 77 % Ctrl, the “% Ctrl” value (YANK3) was 97 % Ctrl and the “% Ctrl” value (SRPK3) was 96 % Ctrl. For the same compound, the “% Ctrl” value (TLK1) was 85 % Ctrl, the “% Ctrl” value (LTK) was 77 % Ctrl and the “% Ctrl” value (NEK6) was 100 % Ctrl. For the same compound, the “% Ctrl” value (PFTAIRE2) was 80 % Ctrl, the “% Ctrl” value [2] was 100 % Ctrl and the “% Ctrl” value (MEK3) was 47 % Ctrl. For the same compound, the “% Ctrl” value (MARK4) was 98 % Ctrl and the “% Ctrl” value (LCK) was 100 % Ctrl.
CN(C)C(=O)c1ccc(N2CCCN(c3ccnc4sc(C(N)=O)c(N)c34)CC2)cc1 [15u, 3-amino-4-(4-(4-(dimethylcarbamoyl)phenyl)-1,4-diazepan-1-yl)thieno[2,3-b]pyridine-2-carboxamide] was tested, and the “% Ctrl” value (SBK1) was 100 % Ctrl, the “% Ctrl” value (DRAK2) was 100 % Ctrl and the “% Ctrl” value (CDK4-cyclinD1) was 94 % Ctrl. For the same compound, the “% Ctrl” value (PIP5K1A) was 100 % Ctrl, the “% Ctrl” value (LOK) was 84 % Ctrl and the “% Ctrl” value (BIKE) was 100 % Ctrl. For the same compound, the “% Ctrl” value (KIT) was 95 % Ctrl, the “% Ctrl” value (MEK6) was 100 % Ctrl and the “% Ctrl” value (PRKG2) was 98 % Ctrl. For the same compound, the “% Ctrl” value (S6K1) was 95 % Ctrl, the “% Ctrl” value (MST1) was 100 % Ctrl and the “% Ctrl” value (MRCKB) was 96 % Ctrl. The “% Ctrl” value (IKK-beta) was 89 % Ctrl, the “% Ctrl” value (PKAC-alpha) was 95 % Ctrl and the “% Ctrl” value (ALK(C1156Y)) was 100 % Ctrl. For the same compound, the “% Ctrl” value [1] was 99 % Ctrl, the “% Ctrl” value (ASK1) was 100 % Ctrl and the “% Ctrl” value (STK35) was 87 % Ctrl. For the same compound, the “% Ctrl” value (CSNK2A2) was 92 % Ctrl, the “% Ctrl” value (EPHB6) was 95 % Ctrl and the “% Ctrl” value (ABL2) was 85 % Ctrl. For the same compound, the “% Ctrl” value (MAP3K4) was 90 % Ctrl, the “% Ctrl” value (PAK7) was 100 % Ctrl and the “% Ctrl” value (BRSK1) was 86 % Ctrl. For the same compound, the “% Ctrl” value (BTK) was 81 % Ctrl, the “% Ctrl” value (YANK3) was 81 % Ctrl and the “% Ctrl” value (SRPK3) was 65 % Ctrl. The “% Ctrl” value (TLK1) was 97 % Ctrl, the “% Ctrl” value (LTK) was 90 % Ctrl and the “% Ctrl” value (NEK6) was 92 % Ctrl. For the same compound, the “% Ctrl” value (PFTAIRE2) was 100 % Ctrl, the “% Ctrl” value [2] was 75 % Ctrl and the “% Ctrl” value (MEK3) was 68 % Ctrl. For the same compound, the “% Ctrl” value (MARK4) was 100 % Ctrl and the “% Ctrl” value (LCK) was 91 % Ctrl.
